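A five-concentration, 48-hour dose response in 96-well plates underlies each endpoint, interpolated linearly between surrounding concentrations. At the GI50, growth is halved.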 Active and inactive are the calls of the source. Cut-off read from the data, not from the text of the source: active = GI50 up to about 1.1 µM and inactive = higher.
Tests used:
Assay in all cases: NCI tumour cell line growth inhibition, 48 h
KM12 = test system: KM12
COLO 205 = test system: COLO 205
LOX IMVI = test system: LOX IMVI
U-251 = test system: U-251
MDA-N = test system: MDA-N
RPMI-8226 = test system: RPMI-8226
PC-3 = test system: PC-3
OVCAR-5 = test system: OVCAR-5
MOLT-4 = test system: MOLT-4
BT-549 = test system: BT-549
SN12C = test system: SN12C
ACHN = test system: ACHN
HOP-62 = test system: HOP-62
786-0 = test system: 786-0
SF-295 = test system: SF-295
SNB-75 = test system: SNB-75
UO-31 = test system: UO-31
NCI-H460 = test system: NCI-H460
TK-10 = test system: TK-10
OVCAR-3 = test system: OVCAR-3
SR = test system: SR
UACC-257 = test system: UACC-257
SF-268 = test system: SF-268
HCC 2998 = test system: HCC 2998
SNB-19 = test system: SNB-19
IGROV-1 = test system: IGROV-1
MCF7 = test system: MCF7
MDA-MB-231 = test system: MDA-MB-231
CAKI-1 = test system: CAKI-1
HT-29 = test system: HT-29
CCRF-CEM = test system: CCRF-CEM
SK-MEL-28 = test system: SK-MEL-28
SF-539 = test system: SF-539
OVCAR-8 = test system: OVCAR-8
MDA-MB-435 = test system: MDA-MB-435
T47D = test system: T47D
A498 = test system: A498
NCI-H23 = test system: NCI-H23
K562 = test system: K562
EKVX = test system: EKVX
HOP-92 = test system: HOP-92
NCI-H522 = test system: NCI-H522
DU-145 = test system: DU-145
A549 = test system: A549
SK-OV-3 = test system: SK-OV-3
SK-MEL-5 = test system: SK-MEL-5
HCT-116 = test system: HCT-116
M14 = test system: M14
Hs-578T = test system: Hs-578T
SK-MEL-2 = test system: SK-MEL-2
HCT-15 = test system: HCT-15
OVCAR-4 = test system: OVCAR-4
SW-620 = test system: SW-620
UACC-62 = test system: UACC-62
Malme-3M = test system: Malme-3M
NCI/ADR-RES = test system: NCI/ADR-RES
RXF 393 = test system: RXF 393
NCI-H226 = test system: NCI-H226

**Q.** For `CC(C)(C)c1c2c(c(C(C)(C)C)c3c1OCN(Cc1ccccc1)C3)OCN(Cc1ccccc1)C2`, which GI50 (KM12) is on record?
**A.** 21.3 µM (inactive)

**Q.** What about the GI50 (COLO 205) of the same compound?
**A.** 13.7 µM (inactive)

**Q.** And the GI50 (LOX IMVI)?
**A.** 16.3 µM (inactive)

**Q.** What about the GI50 (U-251) of the same compound?
**A.** 14.8 µM (inactive)

**Q.** What about the GI50 (MDA-N) of the same compound?
**A.** 11.7 µM (inactive)

**Q.** And the GI50 (RPMI-8226)?
**A.** 8.69 µM (inactive)

**Q.** What about the GI50 (PC-3) of the same compound?
**A.** 16.6 µM (inactive)

**Q.** What about the GI50 (OVCAR-5) of the same compound?
**A.** 13.4 µM (inactive)

**Q.** And the GI50 (MOLT-4)?
**A.** 18.2 µM (inactive)

**Q.** What about the GI50 (BT-549) of the same compound?
**A.** 16.9 µM (inactive)

**Q.** What about the GI50 (SN12C) of the same compound?
**A.** 15.4 µM (inactive)

**Q.** What about the GI50 (ACHN) of the same compound?
**A.** 17.8 µM (inactive)

**Q.** And the GI50 (HOP-62)?
**A.** 18.9 µM (inactive)

**Q.** What about the GI50 (786-0) of the same compound?
**A.** 12.9 µM (inactive)

**Q.** And the GI50 (SF-295)?
**A.** 15.2 µM (inactive)

**Q.** And the GI50 (SNB-75)?
**A.** 37.2 µM (inactive)

**Q.** What about the GI50 (UO-31) of the same compound?
**A.** 17.2 µM (inactive)

**Q.** What about the GI50 (NCI-H460) of the same compound?
**A.** 15.1 µM (inactive)

**Q.** What about the GI50 (TK-10) of the same compound?
**A.** 15 µM (inactive)

**Q.** And the GI50 (OVCAR-3)?
**A.** 14 µM (inactive)

**Q.** And the GI50 (SR)?
**A.** 18.9 µM (inactive)

**Q.** What about the GI50 (UACC-257) of the same compound?
**A.** 12.8 µM (inactive)

**Q.** And the GI50 (SF-268)?
**A.** 16.2 µM (inactive)

**Q.** And the GI50 (HCC 2998)?
**A.** 10.5 µM (inactive)

**Q.** And the GI50 (SNB-19)?
**A.** 11 µM (inactive)

**Q.** What about the GI50 (IGROV-1) of the same compound?
**A.** 21 µM (inactive)

**Q.** What about the GI50 (MCF7) of the same compound?
**A.** 11 µM (inactive)

**Q.** And the GI50 (MDA-MB-231)?
**A.** 15.5 µM (inactive)

**Q.** And the GI50 (CAKI-1)?
**A.** 33.2 µM (inactive)

**Q.** And the GI50 (HT-29)?
**A.** 16.7 µM (inactive)

**Q.** And the GI50 (CCRF-CEM)?
**A.** 28 µM (inactive)

**Q.** And the GI50 (SK-MEL-28)?
**A.** 29.6 µM (inactive)

**Q.** And the GI50 (SF-539)?
**A.** 16 µM (inactive)

**Q.** What about the GI50 (OVCAR-8) of the same compound?
**A.** 26.2 µM (inactive)

**Q.** What about the GI50 (MDA-MB-435) of the same compound?
**A.** 28.5 µM (inactive)

**Q.** What about the GI50 (T47D) of the same compound?
**A.** 31.7 µM (inactive)

**Q.** And the GI50 (A498)?
**A.** 6 µM (inactive)

**Q.** What about the GI50 (NCI-H23) of the same compound?
**A.** 12.9 µM (inactive)

**Q.** What about the GI50 (K562) of the same compound?
**A.** 17.6 µM (inactive)

**Q.** What about the GI50 (EKVX) of the same compound?
**A.** 12.7 µM (inactive)

**Q.** What about the GI50 (HOP-92) of the same compound?
**A.** 12 µM (inactive)

**Q.** What about the GI50 (NCI-H522) of the same compound?
**A.** 10.9 µM (inactive)

**Q.** And the GI50 (DU-145)?
**A.** 22.6 µM (inactive)

**Q.** What about the GI50 (A549) of the same compound?
**A.** 17.6 µM (inactive)

**Q.** What about the GI50 (SK-OV-3) of the same compound?
**A.** 22.6 µM (inactive)

**Q.** And the GI50 (SK-MEL-5)?
**A.** 8.87 µM (inactive)

**Q.** What about the GI50 (HCT-116) of the same compound?
**A.** 11.3 µM (inactive)

**Q.** What about the GI50 (M14) of the same compound?
**A.** 14.2 µM (inactive)

**Q.** And the GI50 (Hs-578T)?
**A.** 20.4 µM (inactive)

**Q.** And the GI50 (SK-MEL-2)?
**A.** 16.6 µM (inactive)

**Q.** And the GI50 (HCT-15)?
**A.** 16.5 µM

**Q.** What about the GI50 (OVCAR-4) of the same compound?
**A.** 44.7 µM (inactive)

**Q.** And the GI50 (SW-620)?
**A.** 24.5 µM (inactive)

**Q.** What about the GI50 (UACC-62) of the same compound?
**A.** 17.7 µM (inactive)

**Q.** What about the GI50 (Malme-3M) of the same compound?
**A.** 18.7 µM (inactive)

**Q.** What about the GI50 (NCI/ADR-RES) of the same compound?
**A.** 19.6 µM (inactive)

**Q.** And the GI50 (RXF 393)?
**A.** 14.7 µM (inactive)

**Q.** Which results are given for `Cc1ncc(CSc2ccccc2N)c(CO)c1O`?
**A.** GI50 (KM12): > 100 µM (inactive); GI50 (COLO 205): > 100 µM (inactive); GI50 (LOX IMVI): > 100 µM (inactive); GI50 (U-251): > 100 µM (inactive); GI50 (MDA-N): > 100 µM (inactive); GI50 (RPMI-8226): > 100 µM (inactive); GI50 (PC-3): > 100 µM (inactive); GI50 (OVCAR-5): > 100 µM (inactive); GI50 (MOLT-4): > 100 µM (inactive); GI50 (BT-549): > 100 µM (inactive); GI50 (SN12C): > 100 µM (inactive); GI50 (ACHN): > 100 µM (inactive); GI50 (HOP-62): > 100 µM (inactive); GI50 (786-0): > 100 µM (inactive); GI50 (SF-295): > 100 µM (inactive); GI50 (SNB-75): > 100 µM (inactive); GI50 (NCI-H226): > 100 µM (inactive); GI50 (TK-10): > 100 µM (inactive); GI50 (OVCAR-3): > 100 µM (inactive); GI50 (SR): > 100 µM (inactive); GI50 (UACC-257): > 100 µM (inactive); GI50 (SF-268): > 100 µM (inactive); GI50 (SNB-19): > 100 µM (inactive); GI50 (IGROV-1): > 100 µM (inactive); GI50 (MCF7): > 100 µM (inactive); GI50 (MDA-MB-231): > 100 µM (inactive); GI50 (CAKI-1): > 100 µM (inactive); GI50 (HT-29): > 100 µM (inactive); GI50 (SK-MEL-28): > 100 µM (inactive); GI50 (SF-539): > 100 µM (inactive); GI50 (OVCAR-8): > 100 µM (inactive); GI50 (MDA-MB-435): > 100 µM (inactive); GI50 (T47D): > 100 µM (inactive); GI50 (A498): > 100 µM (inactive); GI50 (NCI-H23): > 100 µM (inactive); GI50 (K562): > 100 µM (inactive); GI50 (EKVX): > 100 µM (inactive); GI50 (HOP-92): > 100 µM (inactive); GI50 (NCI-H522): > 100 µM (inactive); GI50 (DU-145): > 100 µM (inactive); GI50 (A549): > 100 µM (inactive); GI50 (SK-OV-3): > 100 µM (inactive); GI50 (SK-MEL-5): > 100 µM (inactive); GI50 (HCT-116): > 100 µM (inactive); GI50 (M14): > 100 µM (inactive); GI50 (Hs-578T): > 100 µM (inactive); GI50 (SK-MEL-2): > 100 µM (inactive); GI50 (HCT-15): > 100 µM; GI50 (OVCAR-4): > 100 µM (inactive); GI50 (SW-620): > 100 µM (inactive); GI50 (UACC-62): 65.8 µM (inactive); GI50 (Malme-3M): > 100 µM (inactive); GI50 (NCI/ADR-RES): > 100 µM (inactive); GI50 (RXF 393): > 100 µM (inactive)
